Experimental data as given in US6896895B2, “Carotenoid esters, carotenoid-enriched feeds, and methods of pigmenting foods and foodstuffs” (DSM IP Assets B.V., priority 2000, dated 2005).

Legend:
[1] = Carotenoid ester content and deposition rate in egg yolk of laying hens (HPLC); type: in vivo, laying hens (ISA Brown); set-up: Deposition Rate Value: unit not given here; conditions: for Deposition Rate Target Values % of Controls / Ethyl β-apo-8′-carotenoate Equivalents % of Controls / Deposition Rate % of Controls / Deposition Rate Target Values / Ethyl β-apo-8′-carotenoate Equivalents / Deposition Rate Value: egg yolk; for Deposition Rate % of Controls / Deposition Rate Value: Table 9; for concentration in the egg yolk: versus the control
Summary of the method: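 Hens were first depleted for at least 28 days on a low-carotenoid basal diet (<2 mg total xanthophylls/kg, also the control diet), then fed mash supplemented with the pigments ad libitum for three weeks. Pooled homogenised yolk was extracted with ethanol/n-hexane and analysed by HPLC, calibrated with all-E ethyl β-apo-8′-carotenoate. Response factors were adjusted by molecular weight, and Z-isomers were corrected by a factor of 1.4.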

[2] = tested on: egg yolk; assay: Egg yolk colour: reflectance colorimetry and Roche Yolk Colour Fan; type: in vivo, laying hens (ISA Brown); set-up: key to Chroma C*ab Value: CIE L*a*b* chroma C* value; key to Color Fan Value / Color Fan Value Value: visual score on Roche Yolk Colour Fan (RYCF, 1993 version); key to Color Fan Value, Pigmentation: − = off color; + = good color; conditions: laying hens; for Color Fan Value % of Controls / Chroma C*ab % of Controls / Color Hue h*ab % of Controls / Chroma C*ab Value / Color Fan Value / Color Fan Value, Pigmentation / Color Hue h*ab Value / Color Fan Value Value: egg yolk; for quality in terms of deposition rate and color intensity (chroma C*a*b*) in the egg yolk: compared to the control
Summary of the method: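 ISA Brown laying hens, depleted at least 28 days on low-carotenoid basal diet (<2 mg xanthophylls/kg), fed pigment-supplemented mash ad libitum for three weeks. Pooled yolks of three to six eggs scored with Roche Yolk Colour Fan and measured by reflectance colorimetry (D65, 8°) as CIE L*a*b*, h*, C*; values average four yolk pools.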

[3] = trial H-25/99, 5.0 mg/kg feed, Table 9

SMILES | Deposition Rate Target Values % of Controls ([1]; average over doses, Table 7) [%] | Ethyl β-apo-8′-carotenoate Equivalents % of Controls ([1]; average over doses, Table 7) [%] | Deposition Rate % of Controls ([1]; average over doses) [%] | Deposition Rate Target Values ([1]; trial H-25/99, 5.0 mg/kg feed) [%] | Deposition Rate Target Values % of Controls ([1]; trial H-25/99, 5.0 mg/kg feed) [%] | Ethyl β-apo-8′-carotenoate Equivalents ([1]; trial H-25/99, 5.0 mg/kg feed) [mg/kg] | Ethyl β-apo-8′-carotenoate Equivalents % of Controls ([1]; trial H-25/99, 5.0 mg/kg feed) [%] | Deposition Rate % of Controls ([1]; trial H-25/99, 5.0 mg/kg feed) [%] | Deposition Rate Value ([1]; trial H-25/99, 5.0 mg/kg feed) | concentration in the egg yolk [1] | Color Fan Value % of Controls ([2]; average over doses, Table 7) [%] | Chroma C*ab % of Controls ([2]; average over doses, Table 9) [%] | Color Fan Value % of Controls ([2]; average over doses, Table 9) [%] | Color Hue h*ab % of Controls ([2]; average over doses, Table 9) [%] | Chroma C*ab % of Controls ([2]; trial H-25/99, 5.0 mg/kg feed) [%] | Chroma C*ab Value ([2]; trial H-25/99, 5.0 mg/kg feed) | Color Fan Value ([2]; trial H-25/99, 5.0 mg/kg feed) | Color Fan Value % of Controls ([2]; trial H-25/99, 5.0 mg/kg feed) [%] | Color Fan Value, Pigmentation ([2]; trial H-25/99, 5.0 mg/kg feed) | Color Hue h*ab % of Controls ([2]; trial H-25/99, 5.0 mg/kg feed) [%] | further results
CC(C=CC=C(C)C=CC1=C(C)CCCC1(C)C)=CC=CC=C(C)C=CC=C(C)C(=O)OC(C)(C)C [compound (18), tert. butyl beta-apo-8′-carotenoate] | 119 | 106 | 119 | 60.7 | 119 | 16.6 | 106 | 119 | 61 | in the range of the control | 87 | 101 | 87 | 85 | 101 | 52 | 7 | 87 | + | 85 | Color Hue h*ab Value ([2]; trial H-25/99, 5.0 mg/kg feed): 74; Color Fan Value % of Controls [2, 3]: 87%; Color Fan Value Value [2, 3]: 7; Color Fan Value, Pigmentation [2, 3]: +; quality in terms of deposition rate and color intensity (chroma C*a*b*) in the egg yolk [2]: comparable quality
CCCC(C)OC(=O)C(C)=CC=CC(C)=CC=CC=C(C)C=CC=C(C)C=CC1=C(C)CCCC1(C)C (stereo not drawn) [compound (19), 2-pentyl beta-apo-8′-carotenoate] | 101 | 94 | 101 | 51.2 | 101 | 14.6 | 94 | 101 | 51 | in the range of the control | 87 | 113 | 87 | 96 | 113 | 58 | 7 | 87 | + | 96 | Color Hue h*ab Value ([2]; trial H-25/99, 5.0 mg/kg feed): 82; Color Fan Value % of Controls [2, 3]: 87%; Color Fan Value Value [2, 3]: 7; Color Fan Value, Pigmentation [2, 3]: +; quality in terms of deposition rate and color intensity (chroma C*a*b*) in the egg yolk [2]: comparable quality
